The experiment can be described thus: Inhibition of MCP1-induced CCR2-mediated chemotaxis in human THP-1 cells.

Take `CC(C)N1CCN[C@@H](C(=O)N2CCN(C(=O)Nc3ccc(Cl)c(Cl)c3)CC2)C1`: the midpoint of inhibition, the IC50, lay at 5.1 nM. This counts as single-digit nanomolar.

Broadly, the IC50 is the concentration needed to halve the response being measured.

Source of the values: BindingDB's records for doi:10.1016/j.bmcl.2012.04.118 (Astrazeneca, 2012).
